Measurements reported in the OligoGym collection.
Several values for one entry are separate records, joined by “and”; a condition that tells them apart may be missing. Equal values may be shown once. After the bases stand the sugars from the 5' end (letter, count) and the backbone: PS all phosphorothioate, else s phosphorothioate and o phosphodiester by linkage. Methylation of C is not given here. e = 2'-O-(2-methoxyethyl) (MOE); k = constrained ethyl (cEt); d = 2'-deoxy (DNA)

Target: APOL1
Conditions: ASO

AATGTTTGCATTTGGG (sugars k4 d9 k3, PS)
target mRNA inhibition (A431, 0.0625 µM): 95% | target mRNA inhibition (A431, 0.25 µM): 99% and 97% | target mRNA inhibition (A431, 1 µM): 100% and 98%

TCAGATGGGTACTTCT (sugars k3 d4 k3 e1 d5, PS)
target mRNA inhibition (A431, 2 µM): 82%

GAAGATTGGCTCTGGC (sugars kkddddkekekddddd, PS)
target mRNA inhibition (A431, 2 µM): 48%

CACTTTACATGCACGA (sugars kkddddddddddkeke, PS)
target mRNA inhibition (A431, 0.0156 µM): 16% | target mRNA inhibition (A431, 0.0625 µM): 35% | target mRNA inhibition (A431, 0.25 µM): 66% | target mRNA inhibition (A431, 1 µM): 87%

ATTCTATTAGAGGGCT (sugars kkkddddkekeddddd, PS)
target mRNA inhibition (A431, 2 µM): 73%

GGGTTATGAAATTATT (sugars kkddddkekekddddd, PS)
target mRNA inhibition (A431, 2 µM): 84%

TGAAACATTCCTGGAC (sugars k4 d9 k3, PS)
target mRNA inhibition (A431, 0.0625 µM): 28% and 8% | target mRNA inhibition (A431, 0.25 µM): 55% and 32% | target mRNA inhibition (A431, 1 µM): 80% and 65%

GTATTTCTTGATGTGG (sugars kdddddkekekddddd, PS)
target mRNA inhibition (A431, 2 µM): 92%

CGTGTTATATTTGATC (sugars k2 d4 e3 k2 d5, PS)
target mRNA inhibition (A431, 2 µM): 74%

GTTATATTTGATCCTC (sugars kkddddkekekkdddd, PS)
target mRNA inhibition (A431, 2 µM): 43%

ATCAGATGGGTACTTC (sugars kekddddeekkddddd, PS)
target mRNA inhibition (A431, 2 µM): 91%

ATTCTATTAGAGGGCT (sugars kkddddkdkdkddddd, PS)
target mRNA inhibition (A431, 2 µM): 74%

AAGATTGGCTCTGGCT (sugars kkddddkekekkdddd, PS)
target mRNA inhibition (A431, 2 µM): 2%

ACAGCATTGAGTACAA (sugars k4 d9 k3, PS)
target mRNA inhibition (A431, 0.0625 µM): 44% | target mRNA inhibition (A431, 0.25 µM): 78% | target mRNA inhibition (A431, 1 µM): 90%

TGTTATCCTCAAGCTC (sugars k4 d9 k3, PS)
target mRNA inhibition (A431, 0.0625 µM): 37% and 17%

CATTCAGAATTTCCAC (sugars k2 d4 e3 k2 d5, PS)
target mRNA inhibition (A431, 2 µM): 78%

GTAAGTGCAACCAATC (sugars k4 d9 k3, PS)
target mRNA inhibition (A431, 0.0625 µM): 75% | target mRNA inhibition (A431, 0.25 µM): 93% | target mRNA inhibition (A431, 1 µM): 99%

TATCAGATGGGTACTT (sugars k2 d4 e3 k2 d5, PS)
target mRNA inhibition (A431, 2 µM): 70%

GCTTTAAACTCAGGTG (sugars k2 d4 e3 k2 d5, PS)
target mRNA inhibition (A431, 2 µM): 91%

GCTAATTTTCTGACTG (sugars kkdddddkekeddddd, PS)
target mRNA inhibition (A431, 0.0156 µM): 11% | target mRNA inhibition (A431, 0.0625 µM): 47% | target mRNA inhibition (A431, 0.25 µM): 82% | target mRNA inhibition (A431, 1 µM): 94% | target mRNA inhibition (A431, 2 µM): 99%

AATTCTATTAGAGGGC (sugars k3 d4 k3 e1 d5, PS)
target mRNA inhibition (A431, 2 µM): 70%

GTTTTTACAATAGTGC (sugars k4 d9 k3, PS)
target mRNA inhibition (A431, 0.0625 µM): 74% | target mRNA inhibition (A431, 0.25 µM): 91% | target mRNA inhibition (A431, 1 µM): 96%

TTATTCTCATGGTACA (sugars kkkddddkekekdddd, PS)
target mRNA inhibition (A431, 2 µM): 53%

CTATTAGAGGGCTAGT (sugars kdddddkekekddddd, PS)
target mRNA inhibition (A431, 2 µM): 28%

GCTTTAAACTCAGGTG (sugars kkkddddkdkdkdddd, PS)
target mRNA inhibition (A431, 0.0156 µM): 18% | target mRNA inhibition (A431, 0.0625 µM): 54% | target mRNA inhibition (A431, 0.25 µM): 81% | target mRNA inhibition (A431, 1 µM): 93% | target mRNA inhibition (A431, 2 µM): 93%

CTTTAAACTCAGGTGA (sugars kkkddddkekekdddd, PS)
target mRNA inhibition (A431, 2 µM): 40%

TGGATGGAAGGAACCT (sugars k4 d9 k3, PS)
target mRNA inhibition (A431, 0.0625 µM): 3% | target mRNA inhibition (A431, 0.25 µM): 44% | target mRNA inhibition (A431, 1 µM): 36%

TCAATTTGTCAAGGCT (sugars k4 d9 k3, PS)
target mRNA inhibition (A431, 0.0625 µM): 46% and 59% | target mRNA inhibition (A431, 0.25 µM): 78% and 83% | target mRNA inhibition (A431, 1 µM): 90% and 91%

GTTCTAACTCTTGGGC (sugars kkddddkdkdkddddd, PS)
target mRNA inhibition (A431, 0.0156 µM): 3% | target mRNA inhibition (A431, 0.0625 µM): 28% | target mRNA inhibition (A431, 0.25 µM): 59% | target mRNA inhibition (A431, 1 µM): 75% | target mRNA inhibition (A431, 2 µM): 90%

CACATCATTGGGTTAT (sugars kkddddekekeddddd, PS)
target mRNA inhibition (A431, 2 µM): 81%

GGAATTATGGAATTGC (sugars k3 d4 k3 e1 d5, PS)
target mRNA inhibition (A431, 2 µM): 65%

TTCTATTAGAGGGCTA (sugars kekddddeekkddddd, PS)
target mRNA inhibition (A431, 2 µM): 94%

AAGATTGGCTCTGGCT (sugars kkkddddkekekdddd, PS)
target mRNA inhibition (A431, 2 µM): 23%

TGTTATATTTGATCCT (sugars k3 d4 k3 e1 d5, PS)
target mRNA inhibition (A431, 2 µM): 89%

CATTCAGAATTTCCAC (sugars kkddddkekekddddd, PS)
target mRNA inhibition (A431, 2 µM): 76%

TTCTCATGGTACAGGA (sugars k2 d4 e4 k2 d4, PS)
target mRNA inhibition (A431, 2 µM): 80%

TTCTATTAGAGGGCTA (sugars kkkddddkekeddddd, PS)
target mRNA inhibition (A431, 2 µM): 91%

AGTATTGCCAGCTAAG (sugars kkddddkekekkdddd, PS)
target mRNA inhibition (A431, 2 µM): 34%

CTTTAAACTCAGGTGA (sugars k2 d4 e4 k2 d4, PS)
target mRNA inhibition (A431, 2 µM): 88%

AGTATTGTTTTTGTGG (sugars k2 d4 e4 k2 d4, PS)
target mRNA inhibition (A431, 2 µM): 85%

AGTATTGCCAGCTAAG (sugars kkkddddkekekdddd, PS)
target mRNA inhibition (A431, 2 µM): 66%
